Experimental findings from patent US11066634B2, “Culture device and methods for enumerating mold colonies” (3M INNOVATIVE PROPERTIES COMPANY, priority 2013, dated 2021) are described below.

Experiment [1] relates to Aspergillus niger. Description: Aspergillus niger on PYM plates with EGTA in the inoculum (Example 13). The format is cell-based. As to conditions: for Reduction in colony area / Colony area: 48 hours; for 48 hour count / 72 hour count: total for three plates. The method, then:
A 4-millimolar solution of ethylene glycol tetraacetic acid (EGTA) was prepared by dissolving 15.2 milligrams of EGTA in 10 milliliters of Butterfield's buffer. Serial two-fold dilutions were prepared to provide solutions containing 2 millimolar and 1 millimolar EGTA, respectively. “EGTA”, as used in the Examples, refers to ethylene glycol-bis(2-aminoethylether)-N,N,N′,N′-tetraacetic acid (67-42-5) obtained from Sigma-Aldrich (St. Louis, Mo.). A suspension of Aspergillus niger was diluted and added to the solutions as described in Example 12 to provide final cell concentrations of approximately 5 cfu per ml. Three replicate devices were prepared by inoculating 1 milliliter of the mold suspensions to PYM plates according to the manufacturer's instructions. Images of the plates were obtained after 48 hours and 72 hours of incubation, respectively. […] The average colony size after 48 hours of incubation was determined by imaging the plates and analyzing the images as described above.

Experiment [2] deals with Aspergillus niger.
Experimental: A diluted suspension of Aspergillus niger was prepared as described in example 1. A 1 millimolar solution of EDTA was prepared by dissolving 3.7 milligrams of EDTA in 10 milliliters of Butterfield's buffer. The Aspergillus niger diluted suspension was added to the EDTA/Butterfield's to provide a cell concentration of approximately 5 cfu per milliliter. Five replicate devices were prepared by adding one milliliter of the inoculum to PYM plates according to the manufacturer's instructions. A set of control plates was prepared from a 5 cfu per ml solution of Aspergillus niger containing no EDTA.
For experiment [3], the system named is C. guillermondi. As to conditions: for Colony area (mean ± standard deviation): 91 hours.
Experimental: (§1) Thin film culture devices were prepared as described above. Three yeast strains were serially diluted from a frozen stock to provide a final concentration of approximately 100 CFU per ml. The thin film culture devices were inoculated, incubated for 91 hours, imaged, and analyzed as described above.
In experiment [4] the test system is mold species shown in Table 7. As to conditions: for some species; EDTA concentrations higher than 1 wt % of the dry powder coatings. As for the experimental part: The mold species shown in Table 7 were serially diluted, inoculated, incubated, imaged, and analyzed as described for the A. niger cultures.
Experiment [5] deals with R. mucilaginosa. The conditions noted are these: for Colony area (mean ± standard deviation): 91 hours.
Experimental: as §1
Experiment [6] deals with C. glabrata. As to conditions: for Colony area (mean ± standard deviation): 91 hours.
Experimental: as §1
For experiment [7], the system named is Aspergillus niger (ATCC #16484). As to conditions: for Colony Size Reduction: 1 mM vs 0 mM EDTA. As for the experimental part: Fat free skim milk was purchased from a local grocery store. 3.7 milligrams of disodium EDTA dihydrate was added to 10 milliliters of the fat-free skim milk to provide a final concentration of 1 millimolar EDTA. A suspension of Aspergillus niger (ATCC #16484) was diluted in Butterfields buffer to a concentration of approximately 500 colony forming units per milliliter. 100 microliters of the diluted suspension was added to the milk sample. After briefly vortexing, 1 milliliter of the milk sample containing the mold was used to inoculate PYM plates according to the manufacturer's instructions. The PYM plates were incubated at 30° C. for 48 hours, followed by imaging and colony size analysis as described above. A control sample (without milk) was also prepared in Butterfield's buffer.

Where [8] appears, read: EDTA at concentrations below 1%.
The mark [9] stands for this setting: EDTA concentrations higher than 1%.

Where two headings read alike, the source gives them in different places.

On to `O=C(O)CN(CCOCCOCCN(CC(=O)O)CC(=O)O)CC(=O)O` [EGTA, ethylene glycol-bis(2-aminoethylether)-N,N,N′,N′-tetraacetic acid], for which the “Reduction in colony area” value in experiment [1] (1 mM EGTA vs 0 mM control) is −9%; in experiment [1] (2 mM EGTA vs 0 mM control), −43%; in experiment [1] (4 mM EGTA vs 0 mM control), −78%. Also, the Colony area in experiment [1] (1 mM EGTA) is listed as 24107 pixels; in experiment [1] (2 mM EGTA), 15177 pixels; in experiment [1] (4 mM EGTA) it was 5772 pixels. In addition, the figures for the 48 hour count in experiment [1] (1 mM EGTA), in experiment [1] (2 mM EGTA) and in experiment [1] (4 mM EGTA) were 12, 14 and 11, respectively. Moreover, the 72 hour count is listed as 12 in experiment [1] (1 mM EGTA), 14 in experiment [1] (2 mM EGTA) and 11 in experiment [1] (4 mM EGTA).
As to “disodium ethylenediamine tetraacetic acid dihydrate [EDTA]”, in experiment [2] (1 mM EDTA in inoculum, 48 hours), the Colony area was 1492 pixels. Also, in experiment [2] (1 mM EDTA in inoculum, 48 hr), the “CFUs (48 hr)” value is reported as 15. Also, the “CFUs (72 hr)” value in experiment [2] (1 mM EDTA in inoculum, 72 hr) is 16. Moreover, in experiment [2] (1 mM EDTA, after 48 hours of incubation), the “average colony diameter smaller than the control plates” value is given as “approximately 20 fold”. Moreover, the “Colony area (mean ± standard deviation)” value in experiment [3] (0.5% EDTA) is recorded as 490 ± 129 pixels; in experiment [3] (1% EDTA) it was 201 ± 119 pixels; in experiment [3] (2.3% EDTA) it was 381 ± 140 pixels; in experiment [3] (4.2% EDTA) it was 162 ± 92 pixels; in experiment [5] (0.5% EDTA), 251 ± 95 pixels; in experiment [5] (1% EDTA), 148 ± 76 pixels. Further, the “Colony area (mean ± standard deviation)” value is listed as 0 ± 0 pixels in experiment [5] (2.3% EDTA); 0 ± 0 pixels in experiment [5] (4.2% EDTA); 487 ± 300 pixels in experiment [6] (0.5% EDTA); 308 ± 201 pixels in experiment [6] (1% EDTA); 0 ± 0 pixels in experiment [6] (2.3% EDTA); 0 ± 0 pixels in experiment [6] (4.2% EDTA). The “effect on colony size” value in experiment [3] (setting [8]), in experiment [5] (setting [8]) and in experiment [6] (setting [8]) was “not affected” each time. Further, the “delay in the appearance of visible colonies” value in experiment [4] is recorded as “a delay in the appearance of visible colonies was observed”. In addition, the detection of colonies entry in experiment [5] (setting [9]) and in experiment [6] (setting [9]) was “not detected” throughout. For the same compound, the “Colony Area (1 mM EDTA)” value was 3276 in experiment [7] (Buffer Control (Butterfield's buffer, without milk), 48 hours) and 3789 in experiment [7] (Skim Milk sample, 30° C. for 48 hours). Further, the “Colony Size Reduction” value is listed as −91% in experiment [7] (Buffer Control, 48 hours) and −86% in experiment [7] (Skim Milk sample, 48 hours).
